In PubChem BioAssay AID2060494 (Molecular Pharmacology Branch, DTP, NCI, 2025):
Where “and” joins values, the source holds several entries; their conditions need not be identical. Identical values can stand only once.

Tested on: 435261-313-R-J1-PDC complex spheroid viability
Experiment: Anticancer human tumor 435261-313-R-J1-PDC patient-derived colon adenocarcinoma cell line growth inhibition [GQUAD]
Conditions: for viability, T/C: stronger effect = lower value
Source text: DNA G-quadruplex Stabilizer Agents in Combinations in Complex Spheroids
A high-throughput screen of multi-cell type tumor spheroids was designed to identify active combinations of DNA G-quadruplex stabilizer agents and targeted small molecules. Complex spheroids include a stromal component modeled by human endothelial cells (HUVEC) and fibroblasts modeled by human mesenchymal stem cells (MSCs). The concentration ranges selected for each drug and investigational agent were based upon clinically achievable concentrations if the clinical Cmax of the agent was known.
Compounds. The drugs and investigational agents: pidnarulex (CX-5461; NSC782164), APTO-253 (NSC789042), BRACO-19 (NSC847499), peposertib (NSC802822), ceralasertib (NSC780249), elimusertib (NSC800525), camonsertib (NSC841442), AZD-1390 (NSC803789), olaparib (NSC753686), talazoparib (NSC767125), ART-558 (NSC835418), sotorasib (NSC818433), MRTX-1133 (NSC836407), SN-38 (NSC673596), topotecan (NSC609699), etoposide (NSC141540), doxorubicin (NSC123127), gemcitabine (NSC613327), 5-fluorouracil (NSC19893), paclitaxel (NSC125973), vemurafenib (NSC761431), panobinostat (NSC761190), R-306465 (JNJ-16241199; NSC773264), adavosertib (NSC754352), TP-3654 (NSC805149), carboplatin (NSC241240), KSQ-4279 (NSC840948), and staurosporine (NSC755774) were obtained from the National Cancer Institute (NCI) Developmental Therapeutics Program Chemical Repository (34). The FDA-approved anticancer drug set is available from the NCI Developmental Therapeutics Program. […] The stock solutions were prepared in dimethyl sulfoxide (DMSO, Sigma-Aldrich, St. Louis, MO, cat. D2650) at 800-fold the tested concentration and stored at -70 degrees C prior to their use. All drugs and investigational agents were tested over a range starting from a high concentration at or near the clinical Cmax and decreasing in half-log increments. If the clinical Cmax for an agent had not been determined, the highest concentration tested was 10 microM.
2.3 Cell Culture. All cells were maintained in an incubator at 37 degrees C and 5% CO2 with 95% humidity. The PDC lines were cultured according to standard operating procedures established by the NCI PDMR. All PDCs were thawed and cultured in Matrigel-coated flasks prepared with a working solution of 1X Ham's F-12 nutrient mix, without supplementation (Invitrogen, cat. 11765054), 100 U/mL penicillin-streptomycin (Invitrogen, cat. 15140122), and 2.5% Matrigel (Corning Inc., cat. 354248) for the first three passages. The 857933-349-R-J2-PDC line was cultured in 6C/Colon 1B media, which includes advanced DMEM/F-12 (Thermo Fisher Scientific, cat. 12634028), 10 mM HEPES (Thermo Fisher Scientific, cat. 15630080), 1X GlutaMAX supplement (Thermo Fisher Scientific, cat. 35050061), 0.1 mg/mL primocin (InvivoGen, cat. ant-pm-2), 10% defined fetal bovine serum, heat inactivated (HyClone Laboratories Inc., cat. SH30070.03HI), 50% L-WRN conditioned media (ATCC, cat. CRL-3276), 1.25 mM N-Acetyl-L-cysteine (Sigma-Aldrich, cat. A9165), 10 mM nicotinamide (Sigma-Aldrich, cat. N0636), 1X B-27 supplement (Thermo Fisher Scientific, cat. 17504044), 1X N-2 supplement (Thermo Fisher Scientific, cat. 17502048), 10 microM Y-27632 dihydrochloride (Tocris Bioscience, cat. 1254), and 50 ng/mL human EGF recombinant protein (Thermo Fisher Scientific, cat. PHG0311). The 485176-168-R4-J1-PDC line was cultured in Panc media, which includes all 6C/Colon 1B media components plus 100 ng/mL human FGF-10 (Thermo Fisher Scientific, cat. 100-26), 500 nM SB-431542 (Selleckchem, cat. S1067), and gastrin (Tocris, cat. 3006).
[…]
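Note: spheroids exposed to the agents for seven days before readout.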
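Throughout, for viability, T/C: percent of vehicle control viability with DMSO wells as 100%.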

Q: COc1cccc2c1C(=O)c1c(O)c3c(c(O)c1C2=O)CC(O)(C(=O)CO)CC3OC1CC(N)C(O)C(C)O1 (stereo not drawn) + Cc1cnc(CNC(=O)c2c(=O)c3ccc(N4CCCN(C)CC4)nc3n3c2sc2ccccc23)cn1 was tested. Which IC50 (curve of first compound, second compound 0.0316 µM) did it give?
A: 171 nM

Q: And the IC50 (curve of first compound, second compound 0.1 µM)?
A: 137 nM

Q: And the IC50 (curve of first compound, second compound 0.316 µM)?
A: < 31.6 nM

Q: And the IC50 (curve of first compound, second compound 1 µM)?
A: < 31.6 nM

Q: And the IC50 (curve of first compound, second compound 3.16 µM)?
A: < 31.6 nM

Q: What about the IC50 (curve of first compound, second compound 10 µM) of the same compound?
A: < 31.6 nM

Q: What about the viability, T/C (second compound 0.0316 µM, first compound 0.0316 µM) of the same compound?
A: 66.9%

Q: And the viability, T/C (second compound 0.0316 µM, first compound 0.1 µM)?
A: 48.1%

Q: And the viability, T/C (second compound 0.0316 µM, first compound 0.316 µM)?
A: 46.4%

Q: And the viability, T/C (second compound 0.0316 µM, first compound 1 µM)?
A: 26%

Q: What about the viability, T/C (second compound 0.0316 µM, first compound 3.16 µM) of the same compound?
A: 1.47%

Q: What about the viability, T/C (second compound 0.0316 µM, first compound 10 µM) of the same compound?
A: 2.7%

Q: What about the viability, T/C (second compound 0.1 µM, first compound 0.0316 µM) of the same compound?
A: 64.9%

Q: And the viability, T/C (second compound 0.1 µM, first compound 0.1 µM)?
A: 53.1%

Q: And the viability, T/C (second compound 0.1 µM, first compound 0.316 µM)?
A: 37.9%

Q: And the viability, T/C (second compound 0.1 µM, first compound 1 µM)?
A: 21.9%

Q: And the viability, T/C (second compound 0.1 µM, first compound 3.16 µM)?
A: 1.96%

Q: What about the viability, T/C (second compound 0.1 µM, first compound 10 µM) of the same compound?
A: 2.36%

Q: What about the viability, T/C (second compound 0.316 µM, first compound 0.0316 µM) of the same compound?
A: 48.4%

Q: And the viability, T/C (second compound 0.316 µM, first compound 0.1 µM)?
A: 50.5%

Q: What about the viability, T/C (second compound 0.316 µM, first compound 0.316 µM) of the same compound?
A: 44.8%

Q: And the viability, T/C (second compound 0.316 µM, first compound 1 µM)?
A: 11.5%

Q: And the viability, T/C (second compound 0.316 µM, first compound 3.16 µM)?
A: 0.48%

Q: And the viability, T/C (second compound 0.316 µM, first compound 10 µM)?
A: 1.34%

Q: And the viability, T/C (second compound 1 µM, first compound 0.0316 µM)?
A: 28.8%

Q: What about the viability, T/C (second compound 1 µM, first compound 0.1 µM) of the same compound?
A: 35.5%

Q: What about the viability, T/C (second compound 1 µM, first compound 0.316 µM) of the same compound?
A: 26%

Q: What about the viability, T/C (second compound 1 µM, first compound 1 µM) of the same compound?
A: 0.13%

Q: What about the viability, T/C (second compound 1 µM, first compound 3.16 µM) of the same compound?
A: 0.11%

Q: And the viability, T/C (second compound 1 µM, first compound 10 µM)?
A: 0.36%

Q: What about the viability, T/C (second compound 3.16 µM, first compound 0.0316 µM) of the same compound?
A: 15.4%

Q: What about the viability, T/C (second compound 3.16 µM, first compound 0.1 µM) of the same compound?
A: 19.2%

Q: And the viability, T/C (second compound 3.16 µM, first compound 0.316 µM)?
A: 3.74%

Q: And the viability, T/C (second compound 3.16 µM, first compound 1 µM)?
A: 0.1%

Q: And the viability, T/C (second compound 3.16 µM, first compound 3.16 µM)?
A: 0.13%

Q: What about the viability, T/C (second compound 3.16 µM, first compound 10 µM) of the same compound?
A: 0.2%

Q: What about the viability, T/C (second compound 10 µM, first compound 0.0316 µM) of the same compound?
A: 0.13%

Q: And the viability, T/C (second compound 10 µM, first compound 0.1 µM)?
A: 0.19%

Q: And the viability, T/C (second compound 10 µM, first compound 0.316 µM)?
A: 0.2%

Q: What about the viability, T/C (second compound 10 µM, first compound 1 µM) of the same compound?
A: 0.16%

Q: What about the viability, T/C (second compound 10 µM, first compound 3.16 µM) of the same compound?
A: 0.19%

Q: What about the viability, T/C (second compound 10 µM, first compound 10 µM) of the same compound?
A: 0.19%

Q: For Cc1[nH]c2ccccc2c1CCNCc1ccc(/C=C/C(=O)NO)cc1, which viability, T/C (compound 0.000999 µM) is on record?
A: 95.4% and 104%

Q: What about the viability, T/C (compound 0.00316 µM) of the same compound?
A: 69.8% and 120%

Q: What about the viability, T/C (compound 0.00999 µM) of the same compound?
A: 57.5% and 73.5%

Q: What about the viability, T/C (compound 0.0316 µM) of the same compound?
A: 78.2% and 87.4%

Q: And the viability, T/C (compound 0.0999 µM)?
A: 38% and 48.4%

Q: What about the viability, T/C (compound 0.316 µM) of the same compound?
A: 7.05% and 6.56%

Q: What about the IC50 (curve of compound) of the same compound?
A: 69 nM and 100 nM

Q: COc1ncnc(C2CC2)c1-c1ncc2cnn(Cc3ccc(-c4nc(C(F)(F)F)cn4C(C)C)cc3)c2n1 was tested. Which viability, T/C (compound 0.0316 µM) did it give?
A: 89.1% and 87.3%

Q: And the viability, T/C (compound 0.1 µM)?
A: 75.2% and 70.5%

Q: What about the viability, T/C (compound 0.316 µM) of the same compound?
A: 85.4% and 92.4%

Q: What about the viability, T/C (compound 1 µM) of the same compound?
A: 113% and 83%

Q: And the viability, T/C (compound 3.16 µM)?
A: 96.8% and 88.3%

Q: What about the viability, T/C (compound 10 µM) of the same compound?
A: 84.5% and 65.8%

Q: And the IC50 (curve of compound)?
A: > 10000 nM

Q: With O=c1[nH]cc(F)c(=O)[nH]1 as the compound, how does the viability, T/C (compound 0.0316 µM) read?
A: 88.6% and 164% and 121%

Q: And the viability, T/C (compound 0.1 µM)?
A: 71.2% and 82.5% and 101%

Q: What about the viability, T/C (compound 0.316 µM) of the same compound?
A: 83% and 89.5% and 119%

Q: And the viability, T/C (compound 1 µM)?
A: 61.4% and 63.8% and 109%

Q: What about the viability, T/C (compound 3.16 µM) of the same compound?
A: 63.2% and 95% and 99.5%

Q: And the viability, T/C (compound 10 µM)?
A: 63.7% and 75% and 70.3%

Q: And the IC50 (curve of compound)?
A: > 10000 nM

Q: For Cc1[nH]c2ccc(F)cc2c1-c1nc2c3cccnc3c3ncccc3c2[nH]1, which viability, T/C (compound 0.0316 µM) is on record?
A: 99.6% [middle of 8 runs]

Q: And the viability, T/C (compound 3.16 µM)?
A: 30.2% [middle of 8 runs]

Q: What about the viability, T/C (compound 10 µM) of the same compound?
A: 24.5% [middle of 8 runs]

Q: What about the IC50 (compound alone, run of 02/20/2024) of the same compound?
A: 1.81 µM [middle of 4 runs]

Q: And the IC50 (compound alone, run of 02/26/2024)?
A: 1110 nM and 949 nM and 3310 nM
